Results taken from patent US10316211B2, “Stabilizer and coating compositions thereof” (SWIMC LLC, priority 2012, dated 2019).

Tests used:
MCF-7, clone WS8 cells = test: MCF-7 cell proliferation assay of estrogenic activity; format: cell-based, human; details: log10 of Relative Proliferative Effect (EC50 ratio versus 17-beta estradiol times 100); b102 calls the values expected or measured
Text: The MCF-7 assay is a useful test for assessing whether a polyhydric phenol compound is appreciably non-estrogenic. The MCF-7 assay uses MCF-7, clone WS8 cells to measure whether and to what extent a substance induces cell proliferation via estrogen receptor (ER)-mediated pathways. The method is described in “Test Method Nomination: MCF-7 Cell Proliferation Assay of Estrogenic Activity” submitted for validation by CertiChem, Inc. to the National Toxicology Program Interagency Center for the Evaluation of Alternative Toxicological Methods (NICEATM) on Jan. 19, 2006 (available online at iccvam.niehs.nih.gov/methods/endocrine/endodocs/SubmDoc.pdf).
A brief summary of the method of the aforementioned MCF-7 assay is provided below. MCF-7, clone WS8 cells are maintained at 37° C. in RMPI (Roswell Park Memorial Institute medium) containing Phenol Red (e.g., GIBCO Catalog Number 11875119) and supplemented with the indicated additives for routine culture. An aliquot of cells maintained at 37° C. are grown for two days in phenol-free media containing 5% charcoal stripped fetal bovine serum in a 25 cm^2 tissue culture flask. Using a robotic dispenser such as an EPMOTION™ 5070 unit, MCF-7 cells are then seeded at 400 cells per well in 0.2 ml of hormone-free culture medium in Corning 96-well plates. The cells are adapted for 3 days in the hormone-free culture medium prior to adding the chemical to be assayed for estrogenic activity. The media containing the test chemical is replaced daily for 6 days. At the end of the 7 day exposure to the test chemical, the media is removed, the wells are washed once with 0.2 ml of HBSS (Hanks' Balanced Salt Solution), and then assayed to quantify amounts of DNA per well using a micro-plate modification of the Burton diphenylamine (DPA) assay, which is used to calculate the level of cell proliferation.
RPE is the ratio between the EC50 of the test chemical and the EC50 of the control substance 17-beta estradiol times 100, where EC50 is “effective concentration 50%” or half-maximum stimulation concentration for cell proliferation measured as total DNA in the MCF-7 assay.

human estrogen receptor = target: T1, human estrogen receptor (Homo sapiens, UniProt P03372); test: suitable in vitro assay whose results correlate with the MCF-7 assay (estrogenic activity); details: in vitro assay correlated to MCF-7 assay through common reference compounds
T1 sequence (P03372 1-595): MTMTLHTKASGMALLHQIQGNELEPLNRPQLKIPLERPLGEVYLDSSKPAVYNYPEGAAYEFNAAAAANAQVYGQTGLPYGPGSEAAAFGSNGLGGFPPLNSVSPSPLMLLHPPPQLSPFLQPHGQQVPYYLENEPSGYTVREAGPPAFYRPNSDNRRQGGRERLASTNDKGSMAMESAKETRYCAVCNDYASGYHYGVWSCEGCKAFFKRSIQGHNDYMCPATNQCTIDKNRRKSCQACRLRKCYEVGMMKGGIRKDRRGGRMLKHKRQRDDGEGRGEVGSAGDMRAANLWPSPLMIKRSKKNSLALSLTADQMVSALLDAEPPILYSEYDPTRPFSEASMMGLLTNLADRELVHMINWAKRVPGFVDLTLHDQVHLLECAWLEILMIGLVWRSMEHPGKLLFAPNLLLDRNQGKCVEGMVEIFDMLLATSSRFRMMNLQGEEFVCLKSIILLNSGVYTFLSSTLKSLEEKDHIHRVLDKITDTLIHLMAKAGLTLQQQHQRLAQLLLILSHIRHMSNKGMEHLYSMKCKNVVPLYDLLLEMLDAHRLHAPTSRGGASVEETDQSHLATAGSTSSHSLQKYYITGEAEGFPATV

Compound | Log RPE (MCF-7, clone WS8 cells) | estrogenic activity (human estrogen receptor)
C[C@]12CC[C@@H]3c4ccc(O)cc4CC[C@H]3[C@@H]1CC[C@@H]2O [17β-estradiol] | 2.00 | –
Oc1ccc(Cc2ccc(O)cc2)cc1 [Bisphenol F] | −2 | –
O=S(=O)(c1ccc(O)cc1)c1ccc(O)cc1 [Bisphenol S] | −2 | –
Cc1cc(Cc2cc(C)c(O)c(C)c2)cc(C)c1O [Structure 6, 4,4′-methylenebis(2,6-dimethylphenol)] | – | do not exhibit appreciable estrogenic activity
CCCC(c1cc(C(C)(C)C)c(O)cc1C)c1cc(C(C)(C)C)c(O)cc1C [Structure 7, 4,4′-butylidenebis(2-t-butyl-5-methylphenol)] | – | do not exhibit appreciable estrogenic activity
CC(C)(C)c1cc(Cc2cc(C(C)(C)C)c(O)c(C(C)(C)C)c2)cc(C(C)(C)C)c1O [Structure 8, 4,4′-methylenebis(2,6-di-t-butylphenol)] | – | do not exhibit appreciable estrogenic activity
Cc1cc(Cc2cc(C)cc(C(C)(C)C)c2O)c(O)c(C(C)(C)C)c1 [Structure 9] | – | do not exhibit appreciable estrogenic activity
Oc1ccccc1Cc1ccccc1O [Structure 11] | less than −4 | –
CC(C)(C)c1cc(O)c(C(C)(C)C)cc1O [Structure 12, 2,5-di-t-butylhydroquinone] | – | do not exhibit appreciable estrogenic activity
CC(C)(C)c1cc(O)c(C(C)(C)C)cc1O [Structure 12] | less than −4 | –
